Data reported in patent publication US10479808B1, “Bisphosphonate-based coordination complexes as enhanced pharmaceutical formulations and method of preparing the same” (University of Puerto Rico, priority 2018, dated 2019).
“Also recorded” adds a separate entry of the source.

Tests used:
Type in all cases: physicochemical
[1] = Dissolution profile in FaSSGF (pH 1.60), ALEN-Cu complexation, UV-Vis; details: for order of structural stability of the complexes: FaSSGF pH 1.60, from dissolution profiles
[2] = Dissolution profile in PBS (pH 7.40), ALEN-Cu complexation, UV-Vis; details: for order of structural stability of the complexes: PBS pH 7.40, from dissolution profiles
[3] = Thermal stability by thermal gravimetric analysis (TGA) under N2
Procedure: Thermographs were recorded in a TGA Q500 (TA Instruments Inc.). Thermograph of the BP and pBioCCs were collected using a temperature range of 30-700° C. at 5° C./min under a N2 gas purge. In all cases, ˜10 mg of powder sample was thermally treated. Data was analyzed with TA Universal Analysis software version 4.3A.
It was expected that the thermograph of each pBioCCs consists of at least two mayor decomposition profiles one at lower temperature representing the loss of coordinated or lattice water molecules, and another at higher temperature which accounts for the thermal combustion of the organic moiety, the BP ligand, in this case ALEN. A third decomposition event might be observed above 350° C., due to the thermal degradation of the metal/metal oxide.

Compound | time to reach maximum release ([1]; FaSSGF pH 1.60, 37 °C) [s] | time to reach maximum release ([2]; PBS pH 7.40, 37 °C) [min] | order of structural stability of the complexes [1] | thermal stability (in words) [3] | order of structural stability of the complexes [2]
NCCCC(O)(P(=O)(O)O)P(=O)(O)O [ALEN, Alendronate sodium trihydrate, reference compound] | 10 | 10 | – | – | –
NCCCC(O)(P(=O)([O-])O)P(=O)([O-])O.O.[Ca+2] [ALEN-Ca form I] | – | – | less stable; also recorded: ALEN-Ca form I<ALEN-Ca form II<ALEN-Zn form I<ALEN-Mg<ALEN-Zn form II | high thermal stability | ALEN-Mg<ALEN-Ca form I<ALEN-Ca form II<ALEN-Zn form I<ALEN-Zn form II
NCCCC(O)(P(=O)([O-])O)P(=O)([O-])O.O.[Zn+2] [ALEN-Zn form I] | – | – | ALEN-Ca form I<ALEN-Ca form II<ALEN-Zn form I<ALEN-Mg<ALEN-Zn form II | high thermal stability | ALEN-Mg<ALEN-Ca form I<ALEN-Ca form II<ALEN-Zn form I<ALEN-Zn form II
